Source: US11370798B2 (Vertex Pharmaceuticals Incorporated, priority 2012, dated 2022)

Test system: HCT116 colorectal cancer cells
Assay: Cisplatin sensitization assay (96 h cell viability MTS);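 further: Test-compound concentration that lowers the Cisplatin IC50 by a set fold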
Type: cell-based
Conditions: compound and Cisplatin added simultaneously, Cisplatin sensitization value
Outline: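 Compound and cisplatin added together as a full matrix of 2-fold serial dilutions from a top final concentration of 10 μM; cells incubated 96 h at 37° C, 5% CO2. Viability then read by MTS after 1 h further incubation; sensitization value reported in μM bins.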

Row | Compound | Cisplatin Sensitization Assay
1 | Nc1nn2cc(F)cnc2c1C(=O)Nc1cncc(F)c1N1CCC(C(=O)N2CCN(C3COC3)CC2)CC1 [I-G-32, 2-amino-6-fluoro-N-[5-fluoro-4-[4-[4-(oxetan-3-yl)piperazine-1-carbonyl]-1-piperidyl]-3-pyridyl]pyrazolo[1,5-a]pyrimidine-3-carboxamide] | +++ (Cisplatin sensitization value of <0.02 μM)
2 | CN(C)CC1CCN(c2ccncc2NC(=O)c2c(N)nn3cc(F)cnc23)CC1 [I-N-267, 2-amino-N-(4-(4-((dimethylamino)methyl)piperidin-1-yl)pyridin-3-yl)-6-fluoropyrazolo[1,5-a]pyrimidine-3-carboxamide] | +++ (Cisplatin sensitization value of <0.02 μM)
3 | Nc1nn2cc(Cl)cnc2c1C(=O)Nc1cnccc1N1CCN2CCC1CC2 [I-N-56, N-(4-(1,4-diazabicyclo[3.2.2]nonan-4-yl)pyridin-3-yl)-2-amino-6-chloropyrazolo[1,5-a]pyrimidine-3-carboxamide] | ++ (Cisplatin sensitization value>0.02 μM but <0.2 μM)
4 | Nc1nn2cc(F)cnc2c1C(=O)Nc1cnccc1-c1ccc(C(=O)N2CCN(C3COC3)CC2)cc1F [I-C-51, 2-amino-6-fluoro-N-(4-(2-fluoro-4-(4-(oxetan-3-yl)piperazine-1-carbonyl)phenyl)pyridin-3-yl)pyrazolo[1,5-a]pyrimidine-3-carboxamide] | ++ (Cisplatin sensitization value>0.02 μM but <0.2 μM)
5 | CC1(O)CN(C(=O)C2CCN(c3c(F)cncc3NC(=O)c3c(N)nn4cc(F)cnc34)CC2)C1 [I-G-63, 2-amino-6-fluoro-N-(5-fluoro-4-(4-(3-hydroxy-3-methylazetidine-1-carbonyl)piperidin-1-yl)pyridin-3-yl)pyrazolo[1,5-a]pyrimidine-3-carboxamide] | +++ (Cisplatin sensitization value of <0.02 μM)
6 | Nc1nn2cc(F)cnc2c1C(=O)Nc1cnccc1N1CCN([C@H]2CCOC2)CC1 [I-N-12, (S)-2-amino-6-fluoro-N-(4-(4-(tetrahydrofuran-3-yl)piperazin-1-yl)pyridin-3-yl)pyrazolo[1,5-a]pyrimidine-3-carboxamide] | +++ (Cisplatin sensitization value of <0.02 μM)
7 | N#CC1CN(C(=O)C2CCN(c3ccncc3NC(=O)c3c(N)nn4cc(F)cnc34)CC2)C1 [I-G-81, 2-amino-N-(4-(4-(3-cyanoazetidine-1-carbonyl)piperidin-1-yl)pyridin-3-yl)-6-fluoropyrazolo[1,5-a]pyrimidine-3-carboxamide] | +++ (Cisplatin sensitization value of <0.02 μM)
8 | COc1cncc(NC(=O)c2c(N)nn3cc(F)cnc23)c1C1CC1 [I-C-84, 2-amino-N-(4-cyclopropyl-5-methoxypyridin-3-yl)-6-fluoropyrazolo[1,5-a]pyrimidine-3-carboxamide] | ++ (Cisplatin sensitization value>0.02 μM but <0.2 μM)
9 | Nc1nn2cc(F)cnc2c1C(=O)Nc1cncc(Cl)c1N1CCC(C(=O)N2CCNCC2)CC1 [I-G-48, 2-amino-N-(5-chloro-4-(4-(piperazine-1-carbonyl)piperidin-1-yl)pyridin-3-yl)-6-fluoropyrazolo[1,5-a]pyrimidine-3-carboxamide] | +++ (Cisplatin sensitization value of <0.02 μM)
10 | Nc1nn2cc(F)cnc2c1C(=O)Nc1cnccc1O[C@H]1CN2CCC1CC2 [I-O-5, (R)-2-amino-6-fluoro-N-(4-(quinuclidin-3-yloxy)pyridin-3-yl)pyrazolo[1,5-a]pyrimidine-3-carboxamide] | +++ (Cisplatin sensitization value of <0.02 μM)
11 | CN1CCN(C(=O)c2ccc(-c3ccncc3NC(=O)c3c(N)nn4cc(F)cnc34)cc2)CC1 [I-C-25, 2-amino-6-fluoro-N-(4-(4-(4-methylpiperazine-1-carbonyl)phenyl)pyridin-3-yl)pyrazolo[1,5-a]pyrimidine-3-carboxamide] | +++ (Cisplatin sensitization value of <0.02 μM)
12 | CN1CCC(Oc2c(Cl)cncc2NC(=O)c2c(N)nn3cc(Cl)cnc23)CC1 [I-O-46, 2-amino-6-chloro-N-(5-chloro-4-((1-methylpiperidin-4-yl)oxy)pyridin-3-yl)pyrazolo[1,5-a]pyrimidine-3-carboxamide] | + (Cisplatin sensitization value>0.2 μM but <5 μM)
13 | Cc1nnc(N2CCN(c3ccncc3NC(=O)c3c(N)nn4cc(F)cnc34)CC2)o1 [I-N-256, 2-amino-6-fluoro-N-(4-(4-(5-methyl-1,3,4-oxadiazol-2-yl)piperazin-1-yl)pyridin-3-yl)pyrazolo[1,5-a]pyrimidine-3-carboxamide] | ++ (Cisplatin sensitization value>0.02 μM but <0.2 μM)
14 | Nc1nn2cc(F)cnc2c1C(=O)Nc1cnccc1N1CCN(C2CC2)CC1 [I-N-33, 2-amino-N-(4-(4-cyclopropylpiperazin-1-yl)pyridin-3-yl)-6-fluoropyrazolo[1,5-a]pyrimidine-3-carboxamide] | + (Cisplatin sensitization value>0.2 μM but <5 μM)
15 | CN1CCN(C(=O)C2CCCN(c3c(F)cncc3NC(=O)c3c(N)nn4cc(F)cnc34)C2)CC1 (centres unmarked) [I-N-289, 2-amino-6-fluoro-N-(5-fluoro-4-(3-(4-methylpiperazine-1-carbonyl)piperidin-1-yl)pyridin-3-yl)pyrazolo[1,5-a]pyrimidine-3-carboxamide] | ++ (Cisplatin sensitization value>0.02 μM but <0.2 μM)
16 | COCCN1CCC[C@H](Oc2ccncc2NC(=O)c2c(N)nn3cc(Cl)cnc23)C1 [I-O-67, (S)-2-amino-6-chloro-N-(4-((1-(2-methoxyethyl)piperidin-3-yl)oxy)pyridin-3-yl)pyrazolo[1,5-a]pyrimidine-3-carboxamide] | ++ (Cisplatin sensitization value>0.02 μM but <0.2 μM)
17 | Nc1nn2cc(F)cnc2c1C(=O)Nc1cnccc1-c1ccnnc1 [I-C-26, 2-amino-6-fluoro-N-(4-(pyridazin-4-yl)pyridin-3-yl)pyrazolo[1,5-a]pyrimidine-3-carboxamide] | ++ (Cisplatin sensitization value>0.02 μM but <0.2 μM)
18 | N#C[C@@H]1CCN(c2c(Cl)cncc2NC(=O)c2c(N)nn3cc(F)cnc23)C1 [I-N-285, (R)-2-amino-N-(5-chloro-4-(3-cyanopyrrolidin-1-yl)pyridin-3-yl)-6-fluoropyrazolo[1,5-a]pyrimidine-3-carboxamide] | ++ (Cisplatin sensitization value>0.02 μM but <0.2 μM)
19 | Nc1nn2cc(F)cnc2c1C(=O)Nc1cncc(F)c1N1CCN(C(=O)C2CNC2)CC1 [I-N-168, 2-amino-N-(4-(4-(azetidine-3-carbonyl)piperazin-1-yl)-5-fluoropyridin-3-yl)-6-fluoropyrazolo[1,5-a]pyrimidine-3-carboxamide] | + (Cisplatin sensitization value>0.2 μM but <5 μM)
20 | CN1CCC[C@H]1C(=O)N1CCN(c2c(F)cncc2NC(=O)c2c(N)nn3cc(F)cnc23)CC1 [I-N-157, (S)-2-amino-6-fluoro-N-(5-fluoro-4-(4-(1-methylpyrrolidine-2-carbonyl)piperazin-1-yl)pyridin-3-yl)pyrazolo[1,5-a]pyrimidine-3-carboxamide] | ++ (Cisplatin sensitization value>0.02 μM but <0.2 μM)
21 | CN1CCN(c2cc(Cl)ncc2NC(=O)c2c(N)nn3cc(Cl)cnc23)CC1 [I-N-52, 2-amino-6-chloro-N-(6-chloro-4-(4-methylpiperazin-1-yl)pyridin-3-yl)pyrazolo[1,5-a]pyrimidine-3-carboxamide] | ++ (Cisplatin sensitization value>0.02 μM but <0.2 μM)
22 | Nc1nn2cc(F)cnc2c1C(=O)Nc1cncc(F)c1N1CCN(C2CCOC2)CC1 (centres unmarked) [I-N-122, 2-amino-6-fluoro-N-(5-fluoro-4-(4-(tetrahydrofuran-3-yl)piperazin-1-yl)pyridin-3-yl)pyrazolo[1,5-a]pyrimidine-3-carboxamide] | ++ (Cisplatin sensitization value>0.02 μM but <0.2 μM)
23 | Cn1ccc2cncc(NC(=O)c3c(N)nn4cc(F)cnc34)c21 [I-N-259, 2-amino-6-fluoro-N-(1-methyl-1H-pyrrolo[3,2-c]pyridin-7-yl)pyrazolo[1,5-a]pyrimidine-3-carboxamide] | + (Cisplatin sensitization value>0.2 μM but <5 μM)
24 | Nc1nn2cc(F)cnc2c1C(=O)Nc1cncc(F)c1N1CCN(C(=O)C2CN3CCC2CC3)CC1 (centres unmarked) [I-N-130, 2-amino-6-fluoro-N-(5-fluoro-4-(4-(quinuclidine-3-carbonyl)piperazin-1-yl)pyridin-3-yl)pyrazolo[1,5-a]pyrimidine-3-carboxamide] | ++ (Cisplatin sensitization value>0.02 μM but <0.2 μM)
25 | N#CCc1cnc2c(C(=O)Nc3cnccc3O[C@H]3CCOC3)c(N)nn2c1 [I-O-42, (S)-2-amino-6-(cyanomethyl)-N-(4-((tetrahydrofuran-3-yl)oxy)pyridin-3-yl)pyrazolo[1,5-a]pyrimidine-3-carboxamide] | +++ (Cisplatin sensitization value of <0.02 μM)
26 | CN(C)C(=O)C1CCCN(c2ccncc2NC(=O)c2c(N)nn3cc(F)cnc23)C1 (centres unmarked) [I-N-290, 2-amino-N-(4-(3-(dimethylcarbamoyl)piperidin-1-yl)pyridin-3-yl)-6-fluoropyrazolo[1,5-a]pyrimidine-3-carboxamide] | ++ (Cisplatin sensitization value>0.02 μM but <0.2 μM)
27 | CN1CCN(C(=O)[C@H]2CC[C@@H](Oc3ccncc3NC(=O)c3c(N)nn4cc(F)cnc34)CC2)CC1 [I-O-19, 2-amino-6-fluoro-N-(4-(((1s,4s)-4-(4-methylpiperazine-1-carbonyl)cyclohexyl)oxy)pyridin-3-yl)pyrazolo[1,5-a]pyrimidine-3-carboxamide] | +++ (Cisplatin sensitization value of <0.02 μM)
28 | CN1CCN(c2c(Cl)cncc2NC(=O)c2c(N)nn3cc(Cl)cnc23)CC1 [I-N-41, 2-amino-6-chloro-N-(5-chloro-4-(4-methylpiperazin-1-yl)pyridin-3-yl)pyrazolo[1,5-a]pyrimidine-3-carboxamide] | +++ (Cisplatin sensitization value of <0.02 μM)
29 | Cc1cncn1-c1ccncc1NC(=O)c1c(N)nn2cc(F)cnc12 [I-N-283, 2-amino-6-fluoro-N-(4-(5-methyl-1H-imidazol-1-yl)pyridin-3-yl)pyrazolo[1,5-a]pyrimidine-3-carboxamide] | ++ (Cisplatin sensitization value>0.02 μM but <0.2 μM)
